Experiments:
GLP-1 = assay: in vitro protection of GLP-1 from methyl glyoxal (UPLC/TOF-MS); type: biochemical; settings: 0.62 mM peptide, 30 mM phosphate buffer pH 7.4, 20 equiv methyl glyoxal, 37 degrees C, 3 hours, 5 equiv compound relative to methyl glyoxal
Method: In order to test further the hypothesis that intestinal peptide hormones might be compromised by the chemical action of gut microbial products, in vitro studies were carried out with GLP-1, PYY and Oxyntomodulin. For these studies methyl glyoxal was selected as electrophile because it is a well-known microbial metabolite and also relevant to metabolic syndrome, T2D and diabetic neuropathy; see Diabetes, 63, 50-52 (2014); Biochemical Soc. Transact, 42, 450-456 (2014); Clinical Sci., 128, 839-861 (2015); Hypertension, 56, 471-476 (2010). Methyl glyoxal has also been implicated in neurodegenerative diseases—see Neuroscience, 9, 1-12 (2015). […] Methyl glyoxal can be detected in blood in amounts that correlate with the severity of T2D. […]
The results of the in vitro studies that have been carried out using methyl glyoxal and each of three intestinal peptide hormones, GLP-1, PYY (a satiety-sensing hormone), and Oxyntomodulin, can be summarized as follows: • 1. […] The mixture was cooled to ambient temperature and analyzed by ultra-high pressure liquid chromatography (Agilent 1290 UPLC) coupled with detection by triple time of flight mass spectrometry (Scitex 5600 TRIPTOF mass spectrometer), each aliquot being diluted with 20% aqueous acetic acid. • 2. […]

FATZO mice = assay: in vivo study in polygenic FATZO mouse model of metabolic syndrome, T2D and obesity
Method: (§1) In order to test the hypothesis that a non-absorbable compound which is confined to the GI tract can favorably affect metabolic syndrome T2D and related conditions in vivo studies were carried out with I/II using a polygenic mutant strain of mice that develop metabolic syndrome, T2D and obesity when fed a high fat (“Western type”) diet. This polygenic mouse model (“FATZO” mouse), developed by Eli Lilly Co. and PreClinOmics (now Crown Bio, Indianapolis, Ind.), has been described in detail (PLoS ONE, 12, 1-15 (2017). FATZO mice on a high fat diet generally gain weight, gradually become obese, and develop hyperglycemia, hypertension, glucose intolerance, insulin insensitivity and severe T2D. A group of FATZO mice were placed on a high fat diet (HFD) for an initial three-week ‘base’ period after which they were divided into two groups: Group 1 (the treated group) was maintained on a HFD along with 5 mg/day of I/II, administered in water by gavage. […] Blood glucose levels of the treated group were stabile and after six weeks about 50% below those of the untreated group. […] A third group of FATZO mice was maintained on a standard diet of ordinary mouse chow and also treated with 5 mg/day of I/II.

[1] = analysis of blood of treated mice by HPLC/mass spectrometry (absorption from GI tract); type: in vivo; settings: treated FATZO mice
Method: as §1

[2] = rate studies of reaction with methyl glyoxal by reverse phase HPLC; settings: pH 7, aqueous solution
[3] = standard diet of ordinary mouse chow, 5 mg/day, six weeks

Structure (SMILES): NCc1nc2cc(S(=O)(=O)O)ccc2[nH]1 [I, 2-(Aminiomethyl)-1H-benzol[d]imidazole-5-sulfonate]
- pKa (physchem): ~7.7

Structure (SMILES): NCc1nc2cc(S(=O)(=O)O)ccc2[nH]1 [I/II]
- GLP-1 remained unchanged (GLP-1): greater than 95%
- fasting blood glucose level below that of untreated group (FATZO mice; high fat diet, 5 mg/day by gavage in water, after six weeks): about 50%
- body weight gain (FATZO mice; high fat diet, 5 mg/day by gavage, six weeks (untreated gained 2% per week)): no weight gain
- behavior (FATZO mice; [3]): completely normal behavior
- body weight gain (FATZO mice; [3]): no weight gain
- increase in fasting blood glucose levels (FATZO mice; [3]): no increase in fasting blood glucose levels
- absorption from the GI tract after oral administration [1]: no detectable absorption
- test compound in blood ([1]; oral administration, HPLC/mass spectrometry): < 0.01 mg. per mouse

Structure (SMILES): CN(C)C(=N)N=C(N)N [metformin]
- reactivity (rate) toward methyl glyoxal relative to N-tosyl-arginine methyl ester [2]: less than one-tenth the rate

Source: US10822310B2, “Prevention and treatment of human metabolic syndrome including type 2 diabetes, steatohepititis and related conditions using non-absorbable, orally administered compounds” (priority 2017, dated 2020)
